ChEMBL document CHEMBL4007388, “Synthesis and antiproliferative activity of monocationic arylthiophene derivatives” (Eur J Med Chem, 2017)

Key:
OVCAR-3 = test: Growth inhibition of human OVCAR3 cells incubated for 48 hrs by sulforhodamine B assay; type: functional; conditions: OVCAR-3, 48 h
RPMI-8226 = test: Growth inhibition of human RPMI8226 cells incubated for 48 hrs by sulforhodamine B assay; type: functional; conditions: RPMI-8226, 48 h
Homo sapiens = species: Homo sapiens; test: Inhibition of PTK in human MCF7 cells at 1 uM preincubated for 2 hrs followed by poly-Glu-Tyr substrate addition by ELISA relative to control; type: cell-based
HOP-92 = test: Growth inhibition of human HOP92 cells incubated for 48 hrs by sulforhodamine B assay; type: functional; conditions: HOP-92, 48 h
SR = test: Growth inhibition of human SR cells incubated for 48 hrs by sulforhodamine B assay; type: functional
UACC-62 = test: Growth inhibition of human UACC62 cells incubated for 48 hrs by sulforhodamine B assay; type: functional; conditions: UACC-62, 48 h
SW-620 = test: Growth inhibition of human SW620 cells incubated for 48 hrs by sulforhodamine B assay; type: functional; conditions: SW-620, 48 h
[1] = Antioxidant activity assessed as superoxide dismutase-like activity by measuring inhibition of superoxide radical anion production at 2 uM by NBT reduction assay relative to control; type: functional
OVCAR-8 = test: Growth inhibition of human OVCAR8 cells incubated for 48 hrs by sulforhodamine B assay; type: functional; conditions: OVCAR-8, 48 h
UACC-257 = test: Growth inhibition of human UACC257 cells incubated for 48 hrs by sulforhodamine B assay; type: functional; conditions: UACC-257, 48 h
SK-MEL-2 = test: Growth inhibition of human SK-MEL-2 cells incubated for 48 hrs by sulforhodamine B assay; type: functional; conditions: SK-MEL-2, 48 h
SK-OV-3 = test: Growth inhibition of human SKOV3 cells incubated for 48 hrs by sulforhodamine B assay; type: functional; conditions: SK-OV-3, 48 h
CAKI-1 = test: Growth inhibition of human Caki1 cells incubated for 48 hrs by sulforhodamine B assay; type: functional; conditions: CAKI-1, 48 h
TK-10 = test: Growth inhibition of human TK10 cells incubated for 48 hrs by sulforhodamine B assay; type: functional; conditions: TK-10, 48 h
MDA-MB-468 = test: Growth inhibition of human MDA-MB-468 cells incubated for 48 hrs by sulforhodamine B assay; type: functional; conditions: MDA-MB-468, 48 h
U-251 = test: Growth inhibition of human U251 cells incubated for 48 hrs by sulforhodamine B assay; type: functional; conditions: U-251, 48 h
NCI-H522 = test: Growth inhibition of human NCI-H522 cells incubated for 48 hrs by sulforhodamine B assay; type: functional; conditions: NCI-H522, 48 h
[2] = Growth inhibition of human NCI60 cells at 10 uM after 48 hrs by SRB assay relative to control; values are per cent of control; conditions: NCI60, 48 h
HT-29 = test: Growth inhibition of human HT-29 cells incubated for 48 hrs by sulforhodamine B assay; type: functional; conditions: HT-29, 48 h
WISH = test: Cytotoxicity against human WISH cells assessed as reduction in cell viability after 24 hrs by MTT assay; type: cell-based
SF-539 = test: Growth inhibition of human SF539 cells incubated for 48 hrs by sulforhodamine B assay; type: functional; conditions: SF-539, 48 h
SF-295 = test: Growth inhibition of human SF295 cells incubated for 48 hrs by sulforhodamine B assay; type: functional; conditions: SF-295, 48 h
A549 = test: Growth inhibition of human A549/ATCC cells incubated for 48 hrs by sulforhodamine B assay; type: functional; conditions: A549, 48 h
NCI-H226 = test: Growth inhibition of human NCI-H226 cells incubated for 48 hrs by sulforhodamine B assay; type: functional; conditions: NCI-H226, 48 h
786-0 = test: Growth inhibition of human 786-O cells incubated for 48 hrs by sulforhodamine B assay; type: functional; conditions: 786-0, 48 h
SK-MEL-28 = test: Growth inhibition of human SK-MEL-28 cells incubated for 48 hrs by sulforhodamine B assay; type: functional; conditions: SK-MEL-28, 48 h
Hs-578T = test: Growth inhibition of human Hs 578T cells incubated for 48 hrs by sulforhodamine B assay; type: functional
NCI/ADR-RES = test: Growth inhibition of human NCI/ADR-RES cells incubated for 48 hrs by sulforhodamine B assay; type: functional
WI-38 = test: Cytotoxicity against human WI38 cells assessed as reduction in cell viability after 24 hrs by MTT assay; type: cell-based; conditions: WI-38, 24 h
T47D = test: Growth inhibition of human T47D cells incubated for 48 hrs by sulforhodamine B assay; type: functional
COLO 205 = test: Growth inhibition of human COLO205 cells incubated for 48 hrs by sulforhodamine B assay; type: functional; conditions: COLO 205, 48 h
SK-MEL-5 = test: Growth inhibition of human SK-MEL-5 cells incubated for 48 hrs by sulforhodamine B assay; type: functional; conditions: SK-MEL-5, 48 h
KM12 = test: Growth inhibition of human KM12 cells incubated for 48 hrs by sulforhodamine B assay; type: functional; conditions: KM12, 48 h
NCI-H460 = test: Growth inhibition of human NCI-H460 cells incubated for 48 hrs by sulforhodamine B assay; type: functional; conditions: NCI-H460, 48 h
MCF7 = test: Growth inhibition of human MCF7 cells incubated for 48 hrs by sulforhodamine B assay; type: functional; conditions: MCF7, 48 h
LOX IMVI = test: Growth inhibition of human LOXIMVI cells incubated for 48 hrs by sulforhodamine B assay; type: functional
CCRF-CEM = test: Growth inhibition of human CCRF-CEM cells incubated for 48 hrs by sulforhodamine B assay; type: functional
M14 = test: Growth inhibition of human M14 cells incubated for 48 hrs by sulforhodamine B assay; type: functional; conditions: M14, 48 h
HCT-15 = test: Growth inhibition of human HCT15 cells incubated for 48 hrs by sulforhodamine B assay; type: functional; conditions: HCT-15, 48 h
HCC 2998 = test: Growth inhibition of human HCC2998 cells incubated for 48 hrs by sulforhodamine B assay; type: functional; conditions: HCC 2998, 48 h
SN12C = test: Growth inhibition of human SN12C cells incubated for 48 hrs by sulforhodamine B assay; type: functional
MOLT-4 = test: Growth inhibition of human MOLT4 cells incubated for 48 hrs by sulforhodamine B assay; type: functional; conditions: MOLT-4, 48 h
BT-549 = test: Growth inhibition of human BT549 cells incubated for 48 hrs by sulforhodamine B assay; type: functional; conditions: BT-549, 48 h
NCI-H23 = test: Growth inhibition of human NCI-H23 cells incubated for 48 hrs by sulforhodamine B assay; type: functional; conditions: NCI-H23, 48 h
K562 = test: Growth inhibition of human K562 cells incubated for 48 hrs by sulforhodamine B assay; type: functional; conditions: K562, 48 h
ACHN = test: Growth inhibition of human ACHN cells incubated for 48 hrs by sulforhodamine B assay; type: functional
MDA-MB-435 = test: Growth inhibition of human MDA-MB-435 cells incubated for 48 hrs by sulforhodamine B assay; type: functional; conditions: MDA-MB-435, 48 h
DU-145 = test: Growth inhibition of human DU145 cells incubated for 48 hrs by sulforhodamine B assay; type: functional; conditions: DU-145, 48 h
HCT-116 = test: Growth inhibition of human HCT116 cells incubated for 48 hrs by sulforhodamine B assay; type: functional; conditions: HCT-116, 48 h
SF-268 = test: Growth inhibition of human SF268 cells incubated for 48 hrs by sulforhodamine B assay; type: functional; conditions: SF-268, 48 h
HL-60(TB) = test: Growth inhibition of human HL-60(TB) cells incubated for 48 hrs by sulforhodamine B assay; type: functional; conditions: HL-60, 48 h
Escherichia coli = test: Induction of Escherichia coli genomic DNA cleavage after 1 hr by agarose gel electrophoresis method
HOP-62 = test: Growth inhibition of human HOP62 cells incubated for 48 hrs by sulforhodamine B assay; type: functional; conditions: HOP-62, 48 h
SNB-19 = test: Growth inhibition of human SNB19 cells incubated for 48 hrs by sulforhodamine B assay; type: functional; conditions: SNB-19, 48 h
PC-3 = test: Growth inhibition of human PC3 cells incubated for 48 hrs by sulforhodamine B assay; type: functional; conditions: PC-3, 48 h

With `N=C(N)c1ccc(-c2ccc(-c3cc(Cl)cc(Cl)c3)s2)cc1` the GI50 (OVCAR-3) was 1700 nM, the GI50 (RPMI-8226) was 639 nM and the inhibition (Homo sapiens) was 19 to 36%. It also gave a GI50 (HOP-92) of 1710 nM, a GI50 (SR) of 284 nM and a GI50 (UACC-62) of 1550 nM. It also gave a GI50 (SW-620) of 318 nM, an inhibition [1] of 62.3% and a GI50 (OVCAR-8) of 2420 nM. The GI50 (UACC-257) was 2480 nM, the GI50 (SK-MEL-2) was 1990 nM and the GI50 (SK-OV-3) was 454 nM. It also gave a GI50 (CAKI-1) of 1510 nM, a GI50 (TK-10) of 1870 nM and a GI50 (MDA-MB-468) of 1030 nM. For the same compound, the GI50 (U-251) was 254 nM, the GI50 (NCI-H522) was 2350 nM and the growth percent at 10 µM [2] was -70.3%. For the same compound, the GI50 (HT-29) was 379 nM, the IC50 (WISH) was 156000 nM and the GI50 (SF-539) was 1970 nM. For the same compound, the GI50 (SF-295) was 1380 nM, the GI50 (A549) was 1520 nM and the GI50 (NCI-H226) was 2090 nM. The GI50 (786-0) was 1310 nM, the GI50 (SK-MEL-28) was 1710 nM and the GI50 (Hs-578T) was 2050 nM. For the same compound, the GI50 (NCI/ADR-RES) was 1930 nM, the IC50 (WI-38) was 138000 nM and the GI50 (T47D) was 1480 nM. For the same compound, the GI50 (COLO 205) was 304 nM, the GI50 (SK-MEL-5) was 1600 nM and the GI50 (KM12) was 698 nM. The GI50 (NCI-H460) was 375 nM, the GI50 (MCF7) was 193 nM and the GI50 (LOX IMVI) was 155 nM. The GI50 (CCRF-CEM) was 1540 nM, the GI50 (M14) was 1540 nM and the GI50 (HCT-15) was 255 nM. For the same compound, the GI50 (HCC 2998) was 634 nM, the GI50 (SN12C) was 1570 nM and the GI50 (MOLT-4) was 1180 nM. The GI50 (BT-549) was 2050 nM, the GI50 (NCI-H23) was 1750 nM and the GI50 (K562) was 225 nM. It also gave a GI50 (ACHN) of 1890 nM, a GI50 (MDA-MB-435) of 1520 nM and a GI50 (DU-145) of 970 nM. For the same compound, the GI50 (HCT-116) was 468 nM, the GI50 (SF-268) was 1630 nM and the GI50 (HL-60(TB)) was 1070 nM. For the same compound, the Activity (Escherichia coli) was “Dose-dependent effect”, the GI50 (HOP-62) was 1690 nM and the GI50 (SNB-19) was 1200 nM. For the same compound, the GI50 (PC-3) was 1750 nM.

In the case of `N=C(N)c1ccc(-c2ccc(-c3cccs3)s2)cc1` [4-(2,2'-BITHIOPHENE-5-YL)BENZAMIDINE], the growth percent at 10 µM [2] is reported as 83.9%.

For `N#Cc1ccc(-c2ccc(-c3ccc(Cl)cc3)s2)cc1F`, the inhibition [1] was 35.3%.

In the case of `N=C(N)c1ccc(-c2ccc(-c3cccs3)s2)cc1F`, the growth percent at 10 µM [2] is reported as -72.5%.

Work on `O=c1[nH]cc(F)c(=O)[nH]1` [FLUOROURACIL] yielded an IC50 (WISH) of 7100 nM and an IC50 (WI-38) of 9300 nM.
